Test results: patent publication US12690608B2, “Arecoline salt and preparation method and product thereof” (priority 2020, dated 2026)

Columns and labels:
[1] = Comparison test on atomization (smoking machine, Cambridge filter, conversion rate k); assay type: physicochemical; conditions: concentrations 1-15%
[2] = Surface temperature of heating element while heating the heat-not-burn cigarette (infrared thermal imager)
Method: The heat-not-burn cigarette prepared by the above preparation method is heated by an aerosol generation apparatus (by means of resistance heating), and surface temperature of a heating element in a working state is tested by an infrared thermal imager.

smokers = assay: Comparison test on puff experience (scores by multiple smokers); assay type: in vivo; conditions: same content (3%)
Source text: An arecoline salt and an arecoline hydrobromide of the same content (3%) are selected for puff experience tests, and scores are given from 0 to 5 in terms of pleasure, increased heart rate, ruddy face, body fever, slight sweating and so on by evaluation of multiple smokers.

[3] = Physicochemical analysis: appearance on standing at room temperature; conditions: salt prepared at molar ratio of arecoline to benzoic acid of 1; viscous yellow oily substance

Q: For COC(=O)C1=CCCN(C)C1.O=C(O)c1ccccc1 [arecoline salt, benzoate of arecoline], which “Conversion rate compared with arecoline hydrobromide” value [1] is on record?
A: obviously higher than that of the arecoline hydrobromide

Q: And the “Temperature at which the arecoline salt in the cigarette can be atomized” value ([2]; in heat-not-burn cigarette, generates a smokable aerosol)?
A: 150-250 °C

Q: What about the “Puff duration (temperature) 1 s” value ([2]; surface temperature of heating element, resistance heating, heat-not-burn cigarette containing arecoline salt, puff duration 1 s) of the same compound?
A: 153.1 °C

Q: What about the “Puff duration (temperature) 2 s” value ([2]; surface temperature of heating element, resistance heating, heat-not-burn cigarette containing arecoline salt, puff duration 2 s) of the same compound?
A: 228.3 °C

Q: What about the “Puff duration (temperature) 3 s” value ([2]; surface temperature of heating element, resistance heating, heat-not-burn cigarette containing arecoline salt, puff duration 3 s) of the same compound?
A: 241.1 °C

Q: And the “Puff experience compared with arecoline hydrobromide (pleasure, increased heart rate, ruddy face, body fever, slight sweating)” value (smokers)?
A: obviously superior to the arecoline hydrobromide

Q: What about the “Change of appearance when placed at room temperature” value [3] of the same compound?
A: darkens slowly when placed at room temperature
